Where “and” joins values, the source holds several entries; their conditions need not be identical. Equal values may be shown once. Calls of active or inactive are those of the source.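 The calls were made as follows: active = IC50 no higher than ten times the top tested dose; inconclusive = flat fit with 30 to 70% inhibition, or poor fit; inactive = IC50 above ten times the top dose.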
System: Clostridium difficile clinical isolate growth, OD600, 24 h
Assay: growth modulation of Clostridium difficile isolate – OD600, 9-point, retest, dose response (AID 1224920);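 also: inhibitors lower culture turbidity so OD600 falls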

Structure (SMILES)	IC50
N#C[C@@H]1[C@@H](c2ccc(C#Cc3cccnc3)cc2)[C@@H](CO)N1C(=O)NC1CCCC1	> 240 µM (inactive)
COc1ccccc1CN1C[C@@H]2N[C@H](C1)C2c1ccc(-c2ccc(C#N)cc2)cc1 (stereo partly drawn)	45.1 µM
Cc1cccc(S(=O)(=O)N2C[C@@H]3N[C@H](C2)C3c2ccc(-c3ccccc3F)cc2)c1 (stereo partly drawn)	11.3 µM
Cc1cccc(-c2ccc([C@@H]3[C@H]4CN(CCC(F)(F)F)CCCCN4[C@H]3CO)cc2)c1	66.4 µM
COc1ccc(C#Cc2ccc([C@@H]3[C@@H](CO)N4CCCCN(C(=O)Nc5cccc(F)c5)C[C@H]34)cc2)cc1	14.4 µM
COc1cccc(CN2C[C@@H]3N[C@H](C2)C3c2ccc(-c3ccccc3C)cc2)c1 (stereo partly drawn)	5.48 µM and 13.3 µM
COc1ccc(C#Cc2ccc([C@@H]3[C@@H](CO)N4CCCCN(Cc5ccccc5F)C[C@H]34)cc2)cc1	7.31 µM
Cc1ccc(S(=O)(=O)N2[C@@H]3CNC[C@H]2C3c2ccc(-c3cccc(F)c3)cc2)cc1 (stereo partly drawn)	52.3 µM
O=S(=O)(c1ccccc1)N1C[C@@H]2N[C@H](C1)C2c1ccc(/C=C/c2ccccc2)cc1 (stereo partly drawn)	8.5 µM
Cc1ccccc1-c1ccc(C2[C@@H]3CN(Cc4cocn4)C[C@H]2N3)cc1 (stereo partly drawn)	45.5 µM
CC(C)CC#Cc1ccc([C@H]2[C@H](CO)N3CCCCN(C(=O)Nc4ccccc4)C[C@@H]23)cc1	11.1 µM
O=C(C1CCCCC1)N1C[C@@H]2N[C@H](C1)C2c1ccc(-c2cccc(F)c2)cc1 (stereo partly drawn)	67.8 µM
CCNC(=O)C[C@@H]1CC[C@@H]2[C@H](COC[C@@H](O)CN2C(=O)Nc2ccc(C(F)(F)F)cc2)O1	31.6 µM
O=C(C1CC1)N1C[C@@H]2N[C@H](C1)C2c1ccc(/C=C/c2ccccc2)cc1 (stereo partly drawn)	70.3 µM
COc1ccc(C#Cc2ccc([C@H]3[C@H](CO)N4CCCCN(C(=O)Nc5ccc(F)cc5)C[C@@H]34)cc2)cc1	5.67 µM
O=C(C[C@@H]1CC[C@H]2[C@@H](COC[C@@H](O)CN2C(=O)Nc2ccc(C(F)(F)F)cc2)O1)NCC1CCCCC1	7.5 µM
O=C(C[C@H]1CC[C@H]2[C@@H](COC[C@@H](O)CN2C(=O)Nc2ccc(C(F)(F)F)cc2)O1)NCC1CCCCC1	6.01 µM
COc1cccc(CN2C[C@@H]3N[C@H](C2)C3c2ccc(-c3cccc(C#N)c3)cc2)c1 (stereo partly drawn)	75.5 µM and 30.6 µM
O=C(NC1CCCCC1)N1C[C@@H]2N[C@H](C1)C2c1ccc(-c2cccc(F)c2)cc1 (stereo partly drawn)	61.2 µM
CC(C)CC#Cc1ccc([C@H]2[C@@H](CO)N3CCCCN(C(=O)Nc4ccccc4)C[C@H]23)cc1	12.8 µM
COc1ccc(C#Cc2ccc([C@@H]3[C@H]4CN(Cc5ccccc5F)CCCCN4[C@H]3CO)cc2)cc1	13.7 µM

Structure (SMILES)	IC50
Cc1cccc(-c2ccc(C3[C@H]4CNC[C@@H]3N4C(=O)Nc3ccc(F)cc3)cc2)c1 (stereo partly drawn)	30.6 µM
COc1ccccc1NC(=O)N1CCCCN2[C@@H](CO)[C@@H](c3ccc(-c4cccc(C)c4)cc3)[C@@H]2C1	23.5 µM
OC[C@@H]1[C@@H](c2ccc(C#CC3CCCC3)cc2)[C@H]2CN(CCC(F)(F)F)CCCCN12	26.9 µM
Cc1ccc(-c2ccc([C@H]3[C@@H](CO)N4CCCCN(S(=O)(=O)c5cccc(C)c5)C[C@H]34)cc2)cc1	13.7 µM
COc1ccc(-c2ccc(C3[C@H]4CNC[C@@H]3N4C(=O)Nc3ccc(C(F)(F)F)cc3)cc2)cc1 (stereo partly drawn)	65.7 µM and 10.6 µM
COc1ccccc1CN1CC[C@@H]2[C@H]1c1cc(C3=CCCCC3)ccc1N[C@@H]2CO	74.5 µM
Cc1ccccc1-c1ccc(C2[C@H]3CNC[C@@H]2N3C(=O)Nc2ccc(Cl)cc2)cc1 (stereo partly drawn)	16.9 µM and 34.3 µM
O=S(=O)(c1ccccc1F)N1C[C@@H]2N[C@H](C1)C2c1ccc(/C=C/c2ccccc2)cc1 (stereo partly drawn)	19.4 µM
COc1ccc(C#Cc2ccc([C@@H]3[C@H](CO)N4CCCCN(Cc5ccccc5F)C[C@@H]34)cc2)cc1	8.12 µM
COc1ccc(C#Cc2ccc([C@@H]3[C@@H](CO)N4CCCCN(C(=O)Nc5ccc(F)cc5)C[C@H]34)cc2)cc1	20.6 µM
OC[C@@H]1Nc2ccc(-c3ccc(F)cc3)cc2[C@H]2[C@@H]1CCN2Cc1ccc(F)cc1	90.2 µM
O=C(C[C@H]1CC[C@@H]2[C@H](COC[C@H](O)CN2C(=O)Nc2ccc(C(F)(F)F)cc2)O1)NC1Cc2ccccc2C1	36.6 µM
COc1cccc(S(=O)(=O)N2C[C@@H]3N[C@H](C2)C3c2ccc(-c3ccccc3F)cc2)c1 (stereo partly drawn)	26 µM
C[C@@H]1CN([C@@H](C)CO)C(=O)c2cccc(NC(=O)Nc3ccc(C(F)(F)F)cc3)c2O[C@H]1CN(C)C(=O)Nc1ccc(C(F)(F)F)cc1	22.2 µM
Cc1cccc(-c2ccc([C@@H]3[C@@H]4CN(C(=O)CN(C)C)C[C@H]3N4)cc2)c1	61.5 µM
COc1cccc(S(=O)(=O)N2C[C@@H]3N[C@H](C2)C3c2ccc(-c3ccccc3C)cc2)c1 (stereo partly drawn)	28.6 µM
O=C(c1ccc(F)cc1)N1C[C@@H]2N[C@H](C1)C2c1ccc(/C=C/c2ccccc2)cc1 (stereo partly drawn)	13 µM
O=C(Nc1ccc(F)cc1)N1CCCCN2[C@@H](CO)[C@@H](c3ccc(-c4ccccc4F)cc3)[C@@H]2C1	35 µM
Cc1ccccc1-c1ccc(C2[C@@H]3CN(C(=O)Cc4ccccc4)C[C@H]2N3)cc1 (stereo partly drawn)	62.1 µM and 68.3 µM
COc1cccc(-c2ccc(C3[C@H]4CNC[C@@H]3N4Cc3cc(F)ccc3F)cc2)c1 (stereo partly drawn)	30 µM
N#Cc1ccc(-c2ccc3c(c2)[C@@H]2[C@@H](CCN2Cc2ccc4c(c2)OCO4)[C@@H](CO)N3)cc1	32.3 µM

Structure (SMILES)	IC50
O=C(c1ccc2c(c1)OCO2)N1C[C@@H]2N[C@H](C1)C2c1ccc(/C=C/c2ccccc2)cc1 (stereo partly drawn)	12.4 µM
O=C(NC[C@H]1N[C@H](CO)[C@@H]1c1ccc(C2=CCCCC2)cc1)c1ccccc1	58.2 µM
COc1cccc(-c2ccc(C3[C@@H]4CN(S(=O)(=O)c5ccccc5C)C[C@H]3N4)cc2)c1 (stereo partly drawn)	29.1 µM
O=C(C[C@H]1CC[C@H]2[C@@H](COC[C@H](O)CN2C(=O)Nc2cc(Cl)cc(Cl)c2)O1)N1CCOCC1	15 µM
O=C(Nc1ccc(F)cc1)N1C[C@@H]2N[C@H](C1)C2c1ccc(-c2ccccc2F)cc1 (stereo partly drawn)	36.7 µM and 57.5 µM
COc1ccc(C#Cc2ccc([C@H]3[C@@H](CO)N4CCCCN(C(=O)Nc5cccc(F)c5)C[C@H]34)cc2)cc1	4.44 µM
O=C(Nc1ccccc1F)N1CCCCN2[C@H](CO)[C@H](c3ccc(/C=C/c4ccccc4)cc3)[C@H]2C1	10.4 µM
Cc1ccc(-c2ccc([C@H]3[C@@H](CO)N4CCCCN(C(=O)c5ccc(F)cc5)C[C@H]34)cc2)cc1	30.7 µM
COc1ccc(C#Cc2ccc([C@@H]3[C@H](CO)N4CCCCN(C(=O)Nc5ccc(F)cc5)C[C@@H]34)cc2)cc1	6.67 µM
O=C(Nc1ccccc1F)N1CCCCN2[C@H](CO)[C@@H](c3ccc(/C=C/c4ccccc4)cc3)[C@H]2C1	21.7 µM
FC(F)(F)c1cccc(CN2[C@@H]3CNC[C@H]2[C@@H]3c2ccc(-c3cccnc3)cc2)c1	103 µM
O=C(c1ccccc1)N1CC[C@@H]2[C@H]1c1cc(-c3ccc(F)cc3)ccc1N[C@@H]2CO	129 µM
Fc1cccc(CN2[C@@H]3CNC[C@H]2C3c2ccc(-c3cccc(F)c3)cc2)c1 (stereo partly drawn)	28 µM
O=C(C[C@H]1CC[C@H]2[C@@H](COC[C@H](O)CN2C(=O)Nc2ccc(C(F)(F)F)cc2)O1)NCC1CCCCC1	7.15 µM
Cc1cccc(-c2ccc(C3[C@@H]4CN(C(=O)C5CCCCC5)C[C@H]3N4)cc2)c1 (stereo partly drawn)	26.6 µM
OC[C@@H]1[C@H](c2ccc(/C=C/c3ccccc3)cc2)[C@H]2CN(CCC(F)(F)F)CCCCN12	28.7 µM
O=C(Nc1cccc(F)c1)N1CCCCN2[C@H](CO)[C@H](c3ccc(-c4ccccc4F)cc3)[C@H]2C1	24.5 µM
O=C(c1ccc(F)cc1)N1CC(=O)N2[C@H](CO)[C@H](c3ccc(C#CCC4CCCC4)cc3)[C@H]2C1	81.6 µM
Cc1cccc(-c2ccc([C@H]3[C@H](CO)N4CCCCN(CCC(F)(F)F)C[C@@H]34)cc2)c1	68.9 µM
Fc1ccc(CN2[C@@H]3CNC[C@H]2C3c2ccc(-c3ccccc3)cc2)cc1 (stereo partly drawn)	28.6 µM
COc1ccc(C#Cc2ccc([C@H]3[C@H](CO)N4CCCCN(C(=O)Nc5cccc(F)c5)C[C@@H]34)cc2)cc1	20.9 µM

Structure (SMILES)	IC50
Cc1ccc(-c2ccc([C@@H]3[C@@H](CO)N4CCCCN(S(=O)(=O)c5cccc(C)c5)C[C@H]34)cc2)cc1	10.7 µM
COc1cc(CN2C[C@@H]3N[C@H](C2)C3c2ccc(/C=C/c3ccccc3)cc2)cc(OC)c1 (stereo partly drawn)	9.5 µM
N#Cc1ccc(-c2ccc3c(c2)[C@H]2[C@H](CCN2C(=O)c2ccncc2)[C@H](CO)N3)cc1	> 120 µM (inactive)
O=C(Nc1ccc(F)cc1)N1CCCCN2[C@H](CO)[C@@H](c3ccc(-c4cccc(F)c4)cc3)[C@H]2C1	92.2 µM
Cc1ccc(-c2ccc([C@@H]3[C@@H]4CN(Cc5ccccc5F)C[C@H]3N4)cc2)cc1	4.19 µM
COc1cccc(-c2ccc(C3[C@@H]4CN(Cc5ccccn5)C[C@H]3N4)cc2)c1 (stereo partly drawn)	91.5 µM
O=C(Nc1ccc(C(F)(F)F)cc1)N1C[C@@H]2N[C@H](C1)C2c1ccc(-c2cccc(F)c2)cc1 (stereo partly drawn)	2.63 µM and 2.5 µM
O=C(NC[C@H]1N[C@H](CO)[C@@H]1c1ccc(C2=CCCCC2)cc1)c1cccc(F)c1	58.8 µM
O=C(Nc1ccccc1F)N1CCCCN2[C@@H](CO)[C@@H](c3ccc(/C=C/c4ccccc4)cc3)[C@@H]2C1	11.5 µM
O=C(C1CCCCC1)N1CC[C@@H]2[C@H]1c1cc(C#Cc3ccc(F)cc3)ccc1N[C@@H]2CO	45.2 µM
COc1cccc(-c2ccc(C3[C@H]4CNC[C@@H]3N4Cc3ccc4c(c3)OCO4)cc2)c1 (stereo partly drawn)	30.1 µM
N#Cc1ccc(-c2ccc(C3[C@@H]4CN(C(=O)Nc5ccc(C(F)(F)F)cc5)C[C@H]3N4)cc2)cc1 (stereo partly drawn)	29.7 µM
O=C(Nc1cccc(F)c1)N1CCCCN2[C@@H](CO)[C@@H](c3ccc(C#CC4CC4)cc3)[C@@H]2C1	35.4 µM
Cc1ccc(-c2ccc(C3[C@@H]4CN(C(=O)Nc5ccc(C(F)(F)F)cc5)C[C@H]3N4)cc2)cc1 (stereo partly drawn)	4.49 µM and 2.49 µM
O=C(Nc1ccc(F)cc1)N1C[C@@H]2N[C@H](C1)C2c1ccc(/C=C/c2ccccc2)cc1 (stereo partly drawn)	5.52 µM and 10 µM
COc1ccccc1NC(=O)N1CCCCN2[C@H](CO)[C@H](c3ccc(-c4cccc(C)c4)cc3)[C@H]2C1	10.3 µM
CCNC(=O)C[C@H]1CC[C@@H]2[C@H](COC[C@H](O)CN2C(=O)Nc2ccc(C(F)(F)F)cc2)O1	9.45 µM
O=S(=O)(Cc1ccccc1)N1CCCCN2[C@H](CO)[C@@H](c3ccc(C#Cc4ccccc4)cc3)[C@H]2C1	> 240 µM (inactive)
O=C(C[C@@H]1CC[C@@H]2[C@H](COC[C@H](O)CN2C(=O)Nc2ccc(Cl)c(Cl)c2)O1)NC1CCC1	20.3 µM
OC[C@H]1Nc2ccc(-c3ccccc3)cc2[C@@H]2[C@H]1CCN2Cc1ccccc1F	129 µM

Source: PubChem BioAssay AID1224920 (Broad Institute, 2016)
